Laboratory results reported in patent publication US11597936B2, “Recombinant Dgkk gene for fragile X syndrome gene therapy” (UNIVERSITE DE STRASBOURG, priority 2016, dated 2023).

How the values were obtained:
[1] = tested on: Cos-1 cells; assay: Western blot (anti-HA) of Dgkk constructs in Cos-1 cells, siFmr1 versus siRNA control; assay type: cell-based; conditions: siFmr1 vs siCtrl, HA signal normalized to GAPDH
Description: COS cells (ATCC® CRL-1650™) were grown in DMEM supplemented with 10% fetal calf serum, 1 g/l glucose in the presence of antibiotics at 37° C. in 5% CO2. The day before transfection, 4×10^4 cells were plated into 24-well format plates in 500 μl of antibiotic-free medium.
Transfections of sh-RNAs were performed in triplicate with Lipofectamine 2000 (Invitrogen, Carlsbad, Calif.) on 60 000 cells as directed by the manufacturer with 20 pmol of siRNA (Control or On Target plus Smart Pool mouse FMR1, Thermo) in a final volume of 600 μl. Twenty-four hours later, 0.6 μg of a plasmid construction and 20 pmol of shRNA were co-transfected as above. Fourty-eight hours later, cells washed twice in PBS were lysed directly in the loading buffer (100 mM Tris-HCl, pH 6.8, 4% SDS, 30% glycerol, 1.4 M ß-mercaptoethanol, and bromophenol blue) for 3 min at 95° C. Proteins were analyzed on a 10% SDS-polyacrylamide gel and immunoblotted onto PVDF (Millipore) in Tris-glycine-SDS/20% ethanol buffer for 1 h at 200 mA. […]
In a second series of experiments, the inventors aimed to determine which part of the 5′ region of Dgkk is important in the control of Dgkk expression by FMRP. […] Then, as previously described, Cos-1 cells were transfected by these constructs in the presence or absence of Fmr1 siRNA and the expression of the constructs was analyzed by western-blot.

[2] = tested on: CA1 pyramidal neurons; assay: Dendritic spine morphology and dynamics in hippocampal organotypic slice cultures; assay type: cell-based, mouse
From the text: A short hairpin RNA designed to target Dgkk (shRNA Dgkk, 5′-[…], SEQ ID No: 6) and the selected shRNA-scramble sequence (5′-[…], SEQ ID No: 7) that has no match in silico in the mouse genome, were cloned under the control of the mU6 promoter into a pAAV-MCS derived plasmid expressing enhanced green fluorescent protein (EGFP) under the control of a CMV promoter. Overexpression of Dgkk was achieved by cloning HA-tagged Δ5′reg-Dgkk under the control of the human Synapsin-1 gene promoter replacing EGFP in the control plasmid pENN.AAV.hSynapsin1.EGFP.RBG (provided by the Penn Vector Core at University of Pennsylvania). Recombinant adeno-associated virus serotype 9 (AAV9) co-expressing EGFP and shRNA (AAV9-EGFP-shRNA-Dgkk and control AAV9-EGFP-shRNA-scramble) as well as AAV9 expressing HA-Dgkk or EGFP (AAV9-hSynapsin1-HA-Dgkk and control AAV9-hSynapsin1-EGFP) were generated. AAV production was carried out using the AAV Helper-Free system (Agilent Technologies) with some modifications. AAV9 vectors were generated by triple transfection of 293T/17 cell line using either pAAV-EGFP-shRNA-Dgkk or pAAV-EGFP-shRNA-scramble, pAAV-hSynapsin1-HA-Δ5′reg-Dgkk or pENN.AAV.hSynapsin1.EGFP.RBG together with pAAV2/9 (Penn Vector Core) containing cap genes of AAV serotype 9 and pHelper. Two days after transfection, cells were collected, lysed by three freeze/thaw cycles in dry ice-ethanol and 37° C. baths, further treated with 100 U/ml Benzonase (Novagen) for 30 min at 37° C. and clarified by centrifugation. Viral vectors were purified by iodixanol (Optiprep™, Axis Shield) gradient ultracentrifugation followed by dialysis and concentration against PBS containing 0.5 mM MgCl2 using centrifugal filters (Amicon Ultra-15 100 K). Viral particles were quantified by real time PCR using a linearized standard plasmid pAAV-EGFP.
Hippocampal organotypic slice cultures (400 μm thick) were prepared from postnatal 5-6 day old C57BL/6 Fmr1+/y or its Fmr1−/y littermate mice using a protocol approved by the Geneva veterinary office and maintained under culture conditions as described (De Roo M et al, 2008, Cereb Cortex, 18(1):151-161). Transfection was carried out at DIV7 with a biolistic method (Helios Gene Gun, Bio-Rad) using gold beads coated with mRFP and either pAAV-EGFP-shRNA-Dgkk, pAAV-EGFP-shRNA-scramble, pAAV-hSynapsin1-EGFP or pAAV-hSynapsin1-HA-[…]. Repetitive confocal imaging was performed as previously described (De Roo M et al, 2008, Cereb Cortex, 18(1):151-161). Briefly, dendritic segments of CA1 transfected neurons (30-40 μm in length) were imaged from DIV12 to DIV15 (at 0, 5, 24, 48 and 72 hours) using an Olympus Fluoview 300 system and analysis of the Z-stacked images so obtained was performed using Osirix software.

[3] = versus shRNA-scramble transfected cells

Q: With “Dgkk-FL: plasmid carrying all mouse Dgkk exons, its 5′UTR, its 3′UTR and a HA tag (SEQ ID No: 8)” as the substance, how does the “reduction of the expression level of the construct when FMRP expression is reduced” value [1] read?
A: about 70%

Q: For “shRNA-Dgkk: short hairpin RNA designed to target Dgkk (SEQ ID No: 6), in pAAV plasmid expressing EGFP (guide GGAATGCACTACTGGTATTCC; shRNA hairpin expressed from pAAV-EGFP vector)”, which spine density ([2]; CA1 pyramidal neurons, biolistic transfection) is on record?
A: Absence of changes

Q: What about the “lost spines per 24 h” value [2, 3] of the same substance?
A: Increase

Q: What about the multi-head spines [2, 3] of the same substance?
A: Increase

Q: And the mushroom spines [2, 3]?
A: decrease

Q: What about the “new spine formation per 24 h” value [2, 3] of the same substance?
A: Increase
